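Results reflect a 48-hour exposure of cells in 96-well plates to compound at five concentrations. Abbreviation: GI50, concentration required for 50% inhibition of growth.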 The source made the active and inactive calls. Cut-off read from the data, not from the text of the source: active = GI50 up to about 1.1 µM and inactive = higher.
Key:
Experiment in all cases: NCI tumour cell line growth inhibition, 48 h
A498 = test system: A498
COLO 205 = test system: COLO 205
EKVX = test system: EKVX
HCT-15 = test system: HCT-15
M14 = test system: M14
NCI-H226 = test system: NCI-H226
NCI-H23 = test system: NCI-H23
NCI-H460 = test system: NCI-H460
OVCAR-4 = test system: OVCAR-4
OVCAR-8 = test system: OVCAR-8
SF-295 = test system: SF-295
SK-MEL-28 = test system: SK-MEL-28
SK-MEL-2 = test system: SK-MEL-2
SK-OV-3 = test system: SK-OV-3
SR = test system: SR
SW-620 = test system: SW-620
TK-10 = test system: TK-10
Hs-578T = test system: Hs-578T
MCF7 = test system: MCF7
T47D = test system: T47D

| Structure (SMILES) | GI50 (A498) | GI50 (COLO 205) | GI50 (EKVX) | GI50 (HCT-15) | GI50 (M14) | GI50 (NCI-H226) | GI50 (NCI-H23) | GI50 (NCI-H460) | GI50 (OVCAR-4) | GI50 (OVCAR-8) | GI50 (SF-295) | GI50 (SK-MEL-28) | GI50 (SK-MEL-2) | GI50 (SK-OV-3) | GI50 (SR) | GI50 (SW-620) | GI50 (TK-10) | GI50 (Hs-578T) | GI50 (MCF7) | GI50 (T47D) |
| --- | --- | --- | --- | --- | --- | --- | --- | --- | --- | --- | --- | --- | --- | --- | --- | --- | --- | --- | --- | --- |
| c1coc(CNc2[nH]cnc3nncc2-3)c1 | > 100 µM (inactive) | > 100 µM (inactive) | > 100 µM (inactive) | > 100 µM | > 100 µM (inactive) | > 100 µM (inactive) | 79.6 µM (inactive) | > 100 µM (inactive) | > 100 µM (inactive) | > 100 µM (inactive) | > 100 µM (inactive) | > 100 µM (inactive) | > 100 µM (inactive) | > 100 µM (inactive) | 57.1 µM (inactive) | > 100 µM (inactive) | > 100 µM (inactive) |  |  |  |
| O=C(NCc1ccccc1)c1c(O)nc2ccccc2c1O | > 100 µM (inactive) | > 100 µM (inactive) | > 100 µM (inactive) | > 100 µM |  | > 100 µM (inactive) | > 100 µM (inactive) | > 100 µM (inactive) | > 100 µM (inactive) | > 100 µM (inactive) | > 100 µM (inactive) | > 100 µM (inactive) |  |  | > 100 µM (inactive) | > 100 µM (inactive) | > 100 µM (inactive) | 40.7 µM (inactive) | > 100 µM (inactive) |  |
| C=C1[C@H]2O[C@H]2[C@@H](OC(C)=O)[C@@]2(C)[C@@H](OC(C)=O)C[C@@H](OC(=O)CCC)[C@@](C)(O)[C@@H]2[C@@H](OC(C)=O)[C@]2(O)[C@@H](C)C(=O)O[C@H]2[C@H]1Cl | > 100 µM (inactive) | > 100 µM (inactive) | > 100 µM (inactive) | > 100 µM | > 100 µM (inactive) | 0.159 µM (active) | > 100 µM (inactive) | > 100 µM (inactive) | > 100 µM (inactive) | > 100 µM (inactive) | > 100 µM (inactive) | > 100 µM (inactive) | > 100 µM (inactive) |  |  | > 100 µM (inactive) | 0.959 µM (active) |  | > 100 µM (inactive) | > 100 µM (inactive) |
| O=c1[nH]ccc2c1ccn2C1CC(O)C(CO)O1 (stereo unspecified) | > 100 µM (inactive) | > 100 µM (inactive) | > 100 µM (inactive) | > 100 µM | > 100 µM (inactive) | > 100 µM (inactive) | > 100 µM (inactive) | > 100 µM (inactive) | > 100 µM (inactive) | > 100 µM (inactive) | > 100 µM (inactive) | > 100 µM (inactive) | > 100 µM (inactive) | > 100 µM (inactive) | > 100 µM (inactive) | > 100 µM (inactive) | > 100 µM (inactive) |  |  |  |
| CN(C)c1ccc(/C=N/CC2CCCN3CCCCC23)cc1 (stereo unspecified) |  | 42.7 µM (inactive) | > 100 µM (inactive) | > 100 µM | > 100 µM (inactive) | > 100 µM (inactive) | > 100 µM (inactive) | > 100 µM (inactive) |  | > 100 µM (inactive) | > 100 µM (inactive) |  |  | > 100 µM (inactive) |  |  | > 100 µM (inactive) | 24.8 µM (inactive) | > 100 µM (inactive) |  |
| O=C(O)CCc1ccc2c(c1)C(=O)CC2 | > 100 µM (inactive) | > 100 µM (inactive) | > 100 µM (inactive) | > 100 µM | > 100 µM (inactive) | > 100 µM (inactive) | > 100 µM (inactive) | > 100 µM (inactive) | > 100 µM (inactive) | > 100 µM (inactive) | > 100 µM (inactive) | > 100 µM (inactive) | > 100 µM (inactive) | > 100 µM (inactive) | > 100 µM (inactive) | > 100 µM (inactive) | > 100 µM (inactive) |  | > 100 µM (inactive) | 93.1 µM (inactive) |
| O=C1Nc2ccccc2/C1=N/Nc1nc(-c2ccc(Br)cc2)cs1 |  | 24.9 µM (inactive) | 7.85 µM (inactive) | 19.4 µM | 21.8 µM (inactive) |  | 27.2 µM (inactive) | 21.4 µM (inactive) | 18.5 µM (inactive) | 19.5 µM (inactive) | 24.1 µM (inactive) | 12.6 µM (inactive) | 46.1 µM (inactive) | 23.7 µM (inactive) |  | 28.2 µM (inactive) | 28.6 µM (inactive) | 17.9 µM (inactive) | 37.3 µM (inactive) |  |
| Cn1c(=O)c(C(=O)Nc2nc(C34CC5CC(CC(C5)C3)C4)cs2)c(O)c2ccccc21 | 58.9 µM (inactive) | > 100 µM (inactive) | > 100 µM (inactive) | > 100 µM |  | 52.8 µM (inactive) | > 100 µM (inactive) | > 100 µM (inactive) | > 100 µM (inactive) | > 100 µM (inactive) | > 100 µM (inactive) | > 100 µM (inactive) |  |  | 38.2 µM (inactive) | > 100 µM (inactive) | 25.1 µM (inactive) | 23.8 µM (inactive) | > 100 µM (inactive) |  |
